Consider 69 molecules from the supplement of paper PMC5412046.

This assay has as its system SB.msgc-1. Briefly: AC50 for growth inhibition (viability) (log10 M); higher = less potent. Conditions: SB.msgc-1 (sporadic gastric cancer). The essentials: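 Log half-maximal activity concentration reflects viability of patient-derived gastric cancer cells, hereditary or sporadic, normalised to DMSO and fitted with four parameters, with only high-quality curve classes retained. Wells of a 1536 plate held 500 cells and received compound by pintool at 11 threefold dilutions from a final 46 μM. Luminescence from CellTiter-Glo was read on a ViewLux at 48 h.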
Take `c1ccc(CNc2nc(N3CCOc4ccccc43)nc3c2CCCC3)cc1`: the “AC50 for growth inhibition (log10 M)” value is -4.68.
For the molecule `C/C(=N\NC(=S)N1CCC1)c1ccccn1`, the “AC50 for growth inhibition (log10 M)” value is -5.73.
Take `CC(C)c1ccc(Cn2ccc3c4c(N)nc(NC5CC5)nc4ccc32)cc1`: the “AC50 for growth inhibition (log10 M)” value was -5.78.
As to `CC(C)c1noc(N2CCC(COc3ccc(-c4ccc([S+](C)(=O)[O-])cc4)nc3)CC2)n1`, the “AC50 for growth inhibition (log10 M)” value was -5.23.
To `CC(C)C1=N[N](C\2=C1C(=O)N\C(=N2)CC3=CC=C(OCCO)C=C3)C4=C(Cl)C=CC=C4Cl` belongs -6.88.
With `CC/1=C(/C(CC(=O)N1)C2=CC=C(C=C2)C(F)(F)F)C(=O)NC3=C(F)C=C4[NH]N=CC4=C3` (centres undefined), the “AC50 for growth inhibition (log10 M)” value was -5.03.
The same measure for `CC1(C)Cc2c(sc(NC(=S)NC(=O)c3ccccc3)c2C(=O)O)CO1`: -4.53; for `CC1=C2N=C([NH]C2=CC(=C1)N3CCOCC3)\C4=C(NC[C@@H](O)C5=CC=CC(=C5)Cl)\C=C/NC4=O`: -5.78; for `Cc1cccc(Nc2nc(-c3ccncc3)cs2)c1`: -4.68.
The same measure for `CC1COC2(CCN(CC2)C/3=N/C(=O)C4=CC(=CC(=C4S3)[N+]([O-])=O)C(F)(F)F)O1` (centres undefined): -4.78; for `CCc1cccc(CC)c1NC(=O)N1Cc2[nH]nc(NC(=O)c3ccc(N4CCN(C)CC4)cc3)c2C1`: -4.63; for `CCNC(=O)C[C@H]1/N=C(/C2=CC=C(Cl)C=C2)C3=CC(=CC=C3[N]4C(=NN=C14)C)OC`: -5.03.
The same measure for `CCNC(=O)Nc1ccc(Oc2ncnc(N)c2/C=N/OC)cc1Cl`: -4.88; for `CCOC(=O)C(C)OC1=CC=CC2=C1\C=C/N(CC(=O)NC3=CC=C4OCCOC4=C3)C2=O` (centres undefined): -5.18; for `Cc1cc(NC(=O)Nc2ccc(N(C)C)cc2)c2cc(F)cc(F)c2n1`: -5.08.
`CN(C)Cc1ccc(-c2nc3cccc4c3n2CCNC4=O)cc1`: the “AC50 for growth inhibition (log10 M)” value was -4.78.
To `Cc1c(-c2cccc3c(CCCOc4cccc5ccccc45)c(C(=O)O)n(Cc4cccnc4)c23)c(COc2ccc(N3CCN([S+](=O)([O-])N(C)C)CC3)cc2)nn1C` belongs -4.63; to `CN1C(=O)C(=C\C2=C1N=C(NC3=CC=CC(=C3)C(O)=O)N=C2)/C4=C(Cl)C=CC=C4Cl`, -5.78.
The same measure for `CN1CCN(c2cccc(Nc3nc4c(-c5ccc([S+](C)(=O)[O-])cc5)cccn4n3)c2)CC1`: -4.78.
As to `CNC(=O)c1ccc2c(c1)NC(=O)/C2=C(\Nc1cccc(CN(C)C)c1)c1ccccc1`, the “AC50 for growth inhibition (log10 M)” value was -4.93.
With `CNc1nc(-c2ccc3c(N)n[nH]c3c2)cc(N2C[C@@H](C(=O)NC3CCCCC3)CC[C@H]2C)n1`, the “AC50 for growth inhibition (log10 M)” value is -4.68.
To `COc1cc(N2CCN(C)CC2)ccc1Nc1nc(N)c(C(=O)c2c(Cl)cccc2Cl)s1` belongs -5.18; to `COc1cc2c(Nc3ccc(NC(=O)c4ccccc4)cc3)ncnc2cc1OCCCN1CCOCC1`, -4.83.
The same measure for `COc1ccc(OC)c(-c2nnc3ccc(-c4ccc(OC)c(O[C@@H]5CCOC5)c4)nn23)c1`: -4.68; for `COc1cc(-c2nn(C3CCC(N4CCN(C(C)=O)CC4)CC3)c3ncnc(N)c23)ccc1NC(=O)c1cc2ccccc2n1C` (centres undefined): -5.28.
To `COc1ccc(CCC(=O)Nc2nc3ccc(Cl)cc3s2)cc1OC` belongs -4.63; to `COc1ccc(N(C(=O)Oc2c(C)cccc2C)c2ccnc(Nc3ccc(N4CCN(C)CC4)cc3)n2)c(OC)c1`, -5.43; to `COC1=CC=C2[C@H]3CC[C@]4(C)[C@H](CC[C@H]4[C@@H]3CCC2=C1)NCCCCCCN5C(=O)\C=C/C5=O`, -4.73.
As for `COC1=CC=CC(=C1N)\C2=C\C(=O)C3=C(O2)C=CC=C3`, the “AC50 for growth inhibition (log10 M)” value was -4.68.
The same measure for `COCCOc1ccc2c(c1)ncn2-c1ccc2cccc(N3CCC(N)CC3)c2n1`: -5.23.
The same measure for `C[C@H](c1ccc(F)cc1CCCC(=O)O)N(c1cc(F)ccc1F)[S+](=O)([O-])c1ccc(Cl)cc1`: -4.78; for `C[C@@H](N)c1ccc(C(=O)Nc2ccnc3[nH]ccc23)cc1`: -4.78; for `C[C@H](NCc1ccc2c(c1)nc(NC(=O)c1ccc(-c3cn[nH]c3)s1)n2CCc1ccccc1)C(C)(C)C`: -6.03.
To `C[C@@]1(C(=O)Nc2ccc(F)nc2)CCCN1c1nc(Nc2cc(C3CC3)[nH]n2)c2cccn2n1` belongs -4.73.
For `C[N]1C=C(C=N1)C2=CC=C3N=CC\4=C(N(C(=O)\C=C4)C5=CC6=C(CCN6C(=O)C=C)C=C5)C3=C2`, the “AC50 for growth inhibition (log10 M)” value was -4.98.
The same measure for `Cn1ccc2cc3c(cc21)CCN3C(=O)Nc1cccnc1`: -5.03.
To `C[S+]([O-])c1ccc(-c2nc(-c3ccc(F)cc3)c(-c3ccncc3)[nH]2)cc1` (centres undefined) belongs -4.62; to `O=C(NCc1ccncc1)C12C[C@H]3C[C@@H](C1)CC(c1ccc(Cl)cc1)(C3)C2`, -4.98; to `O=C(Nc1ccccc1Br)N[C@@H]1CCN(c2ccc(C(F)(F)F)cn2)C1`, -4.73.
To `O=C1NC(=O)/C(=C/c2ccc3c(c2)OC(F)(F)O3)S1` belongs -4.83; to `O=C1NC(=O)/C(=C\c2ccc(-c3ccc(F)cc3)o2)S1`, -4.78.
For the molecule `NC(=O)c1noc([C@H](CCCC2CCCCC2)CC(=O)NO)n1`, the “AC50 for growth inhibition (log10 M)” value was -4.93.
The same measure for `Nc1cccc([S+](=O)([O-])N2CCCN([S+](=O)([O-])c3ccc4c(c3)OCCO4)CC2)c1`: -4.88.
`Nc1nc(NCCNc2ncc(-n3ccnc3)c(-c3ccc(Cl)cc3Cl)n2)ccc1[N+](=O)[O-]`: the “AC50 for growth inhibition (log10 M)” value is -5.68.
To `Nc1nc(N)c2nc(-c3cccc(O)c3)c(-c3cccc(O)c3)nc2n1` belongs -5.18; to `O=C(C1CC1)N1CC[C@@H](Cn2c(-c3ccc(-c4ccc5occc5c4)cc3)nc3cnccc32)C1`, -4.73; to `O=C1NCCc2[nH]c(-c3ccncc3)cc21`, -5.63.
To `O=C(Nc1ccccc1)Nc1ccc(-c2ccc(C(=O)[C@@H]3CCC[C@H]3C(=O)O)cc2)cc1` belongs -4.63; to `OC1=C(Cl)C=C(N\C2=C(\C(=O)NC2=O)C3=C(C=CC=C3)[N+]([O-])=O)C=C1`, -4.88.
To `Oc1ccc(C2CCN(c3ccnc4ccccc34)CC2)cc1O` belongs -4.63.
For the molecule `O=C(NOCC(O)CO)c1cc(Br)c(F)c(F)c1Nc1ccc(I)cc1F` (centres undefined), the “AC50 for growth inhibition (log10 M)” value was -5.88.
To `OCCCNc1cc(-c2ccnc(Nc3cccc(Cl)c3)n2)ccn1` belongs -6.68; to `O=C(NOC[C@H](O)CO)c1ccc(F)c(F)c1Nc1ccc(I)cc1F`, -6.33.
To `O=[N+]([O-])c1ccc(Nc2ccccc2-c2ccccc2)c2nonc12` belongs -4.53.
The same measure for `COc1cc2c(cc1O)CCC1C2CC[C@@]2(C)C1CC[C@@H]2O` (some centres undefined) [2-Methoxyestradiol]: -5.33.
In the case of `Cn1cnc(N)c2ncnc1-2` [3-Methyladenine], the “AC50 for growth inhibition (log10 M)” value was -5.28.
For the molecule `N[C@@H](Cc1c[nH]c2ccc(O)cc12)C(=O)O` [5-Hydroxytryptophan], the “AC50 for growth inhibition (log10 M)” value is -4.68.
To `S=C1N\C=N/C2=C1[NH]C=N2` [6-mercaptopurine] belongs -5.63; to `Cc1cc2c(C(C)C)c(O)c(O)c(C=O)c2c(O)c1-c1c(C)cc2c(C(C)C)c(O)c(O)c(C=O)c2c1O` [(-)-Gossypol], -4.83.
The same measure for `CC(C)[C@H]1C(=O)N[C@H](CO)Cc2c[nH]c3cccc(c23)N1C` [(-)-Indolactam V]: -6.43; for `Cc1cccc(-c2nn(C(=S)Nc3ccccc3)cc2-c2ccnc3ccccc23)n1` [A 83-01]: -4.73.
To `CC(=O)NC(C)c1ccc(Oc2ccc(OC(C)C)cc2)cc1` (centres undefined) [ACC1 BMS] belongs -4.73.
As to `O=C(Nc1cccc(C(F)(F)F)c1)Nc1cc([S+](=O)([O-])NC2CC2)ccc1-c1ccsc1` [AGI-6780], the “AC50 for growth inhibition (log10 M)” value is -4.73.
To `O=c1[nH]c2ccccc2n1C1CCN(Cc2ccc(-c3nc4cc5nc[nH]c5cc4nc3-c3ccccc3)cc2)CC1` [AKT inhibitor VIII] belongs -4.83; to `COc1ccc(C(=O)c2c(C)n(CCN3CCOCC3)c3cc(I)ccc23)cc1` [AM-630], -4.63; to `Cc1csc(-c2nnc(Nc3ccc(Oc4ncccc4-c4ccnc(N)n4)cc3)c3ccccc23)c1` [AMG-900], -4.68.
The same measure for `N#Cc1ccc(Oc2ccc3c(c2)COB3O)cc1` [AN2728]: -4.73; for `COCC1(CO)C(=O)C2CCN1CC2` (centres undefined) [APR-246]: -4.88.
To `CC(C)[C@H](C(=O)Nc1ccc(C(=O)NO)cc1)c1ccccc1` [AR-42] belongs -6.18.
